Measurements from ChEMBL document CHEMBL4804284.

What was measured:
Design in all cases: scale not given: the % may be the effect or the level left
[1] = target: Serine/threonine-protein kinase DCLK2 (Homo sapiens) (UniProt Q8N568); assay: Inhibition of DNA-tagged human DCAMKL2 assessed as percent of control at 50000 nM by qPCR analysis relative to control
[2] = target: Serine/threonine-protein kinase DCLK3 (Homo sapiens) (UniProt Q9C098); assay: Inhibition of DNA-tagged human DCAMKL3 assessed as percent of control at 50000 nM by qPCR analysis relative to control
[3] = target: MAP kinase-activated protein kinase 5 (Homo sapiens) (UniProt Q8IW41); assay: Inhibition of DNA-tagged human MAPKAPK5 assessed as percent of control at 50000 nM by qPCR analysis relative to control
[4] = target: Serine/threonine-protein kinase ULK1 (Homo sapiens) (UniProt O75385); assay: Inhibition of DNA-tagged human ULK1 assessed as percent of control at 50000 nM by qPCR analysis relative to control
[5] = target: Vascular endothelial growth factor receptor 1 (Homo sapiens) (UniProt P17948); assay: Inhibition of DNA-tagged human FLT1 assessed as percent of control at 50000 nM by qPCR analysis relative to control
[6] = target: Mitogen-activated protein kinase kinase kinase 7 (Homo sapiens) (UniProt O43318); assay: Inhibition of DNA-tagged human TAK1 assessed as percent of control at 50000 nM by qPCR analysis relative to control
[7] = target: Ephrin type-B receptor 2 (Homo sapiens) (UniProt P29323); assay: Inhibition of DNA-tagged human EPHB2 assessed as percent of control at 50000 nM by qPCR analysis relative to control
[8] = target: Proto-oncogene tyrosine-protein kinase Src (Homo sapiens) (UniProt P12931); assay: Inhibition of DNA-tagged human SRC assessed as percent of control at 50000 nM by qPCR analysis relative to control
[9] = target: Homeodomain-interacting protein kinase 2 (Homo sapiens) (UniProt Q9H2X6); assay: Inhibition of DNA-tagged human HIPK2 assessed as percent of control at 50000 nM by qPCR analysis relative to control
[10] = target: Dual specificity mitogen-activated protein kinase kinase 1 (Homo sapiens) (UniProt Q02750); assay: Inhibition of DNA-tagged human MEK1 assessed as percent of control at 50000 nM by qPCR analysis relative to control
[11] = target: Calcium/calmodulin-dependent protein kinase kinase 2 (Homo sapiens) (UniProt Q96RR4); assay: Inhibition of DNA-tagged human CAMKK2 assessed as percent of control at 50000 nM by qPCR analysis relative to control
[12] = target: Mitogen-activated protein kinase kinase kinase kinase 4 (Homo sapiens) (UniProt O95819); assay: Inhibition of DNA-tagged human MAP4K4 assessed as percent of control at 50000 nM by qPCR analysis relative to control
[13] = target: Calcium/calmodulin-dependent protein kinase type 1D (Homo sapiens) (UniProt Q8IU85); assay: Inhibition of DNA-tagged human CAMK1D assessed as percent of control at 50000 nM by qPCR analysis relative to control
[14] = target: Mitogen-activated protein kinase kinase kinase 9 (Homo sapiens) (UniProt P80192); assay: Inhibition of DNA-tagged human MLK1 assessed as percent of control at 50000 nM by qPCR analysis relative to control
[15] = target: Tyrosine-protein kinase Srms (Homo sapiens) (UniProt Q9H3Y6); assay: Inhibition of DNA-tagged human SRMS assessed as percent of control at 50000 nM by qPCR analysis relative to control
[16] = target: Serine/threonine-protein kinase 36 (Homo sapiens) (UniProt Q9NRP7); assay: Inhibition of DNA-tagged human STK36 assessed as percent of control at 50000 nM by qPCR analysis relative to control
[17] = target: Tyrosine-protein kinase Blk (Homo sapiens) (UniProt P51451); assay: Inhibition of DNA-tagged human BLK assessed as percent of control at 50000 nM by qPCR analysis relative to control
[18] = test system: Epidermal growth factor receptor (Homo sapiens), P00533 [L861Q]; assay: Inhibition of DNA-tagged human EGFR L861Q mutant assessed as percent of control at 50000 nM by qPCR analysis relative to control
[19] = target: Mitogen-activated protein kinase 6 (Homo sapiens) (UniProt Q16659); assay: Inhibition of DNA-tagged human ERK3 assessed as percent of control at 50000 nM by qPCR analysis relative to control
[20] = target: Serine/threonine-protein kinase 25 (Homo sapiens) (UniProt O00506); assay: Inhibition of DNA-tagged human YSK1 assessed as percent of control at 50000 nM by qPCR analysis relative to control
[21] = target: Cyclin-dependent kinase-like 5 (Homo sapiens) (UniProt O76039); assay: Inhibition of DNA-tagged human CDKL5 assessed as percent of control at 50000 nM by qPCR analysis relative to control
[22] = target: Serine/threonine-protein kinase 26 (Homo sapiens) (UniProt Q9P289); assay: Inhibition of DNA-tagged human MST4 assessed as percent of control at 50000 nM by qPCR analysis relative to control
[23] = test system: Tyrosine-protein kinase ABL1 (Homo sapiens), P00519 [Q252H]; assay: Inhibition of DNA-tagged phosphorylated human ABL1 Q252H mutant assessed as percent of control at 50000 nM by qPCR analysis relative to control
[24] = target: Tyrosine-protein kinase Yes (Homo sapiens) (UniProt P07947); assay: Inhibition of DNA-tagged human YES assessed as percent of control at 50000 nM by qPCR analysis relative to control
[25] = test system: eIF-2-alpha kinase GCN2 (Homo sapiens), Q9P2K8 [S808G]; assay: Inhibition of DNA-tagged human GCN2 S808G mutant kinase domain 2 assessed as percent of control at 50000 nM by qPCR analysis relative to control
[26] = target: Receptor-interacting serine/threonine-protein kinase 4 (Homo sapiens) (UniProt P57078); assay: Inhibition of DNA-tagged human RIPK4 assessed as percent of control at 50000 nM by qPCR analysis relative to control
[27] = target: Receptor tyrosine-protein kinase erbB-4 (Homo sapiens) (UniProt Q15303); assay: Inhibition of DNA-tagged human ERBB4 assessed as percent of control at 50000 nM by qPCR analysis relative to control
[28] = target: Mitogen-activated protein kinase 3 (Homo sapiens) (UniProt P27361); assay: Inhibition of DNA-tagged human ERK1 assessed as percent of control at 50000 nM by qPCR analysis relative to control
[29] = target: Receptor tyrosine-protein kinase erbB-2 (Homo sapiens) (UniProt P04626); assay: Inhibition of DNA-tagged human ERBB2 assessed as percent of control at 50000 nM by qPCR analysis relative to control

Sequence of Serine/threonine-protein kinase DCLK2 (Homo sapiens) (Q8N568 whole entry): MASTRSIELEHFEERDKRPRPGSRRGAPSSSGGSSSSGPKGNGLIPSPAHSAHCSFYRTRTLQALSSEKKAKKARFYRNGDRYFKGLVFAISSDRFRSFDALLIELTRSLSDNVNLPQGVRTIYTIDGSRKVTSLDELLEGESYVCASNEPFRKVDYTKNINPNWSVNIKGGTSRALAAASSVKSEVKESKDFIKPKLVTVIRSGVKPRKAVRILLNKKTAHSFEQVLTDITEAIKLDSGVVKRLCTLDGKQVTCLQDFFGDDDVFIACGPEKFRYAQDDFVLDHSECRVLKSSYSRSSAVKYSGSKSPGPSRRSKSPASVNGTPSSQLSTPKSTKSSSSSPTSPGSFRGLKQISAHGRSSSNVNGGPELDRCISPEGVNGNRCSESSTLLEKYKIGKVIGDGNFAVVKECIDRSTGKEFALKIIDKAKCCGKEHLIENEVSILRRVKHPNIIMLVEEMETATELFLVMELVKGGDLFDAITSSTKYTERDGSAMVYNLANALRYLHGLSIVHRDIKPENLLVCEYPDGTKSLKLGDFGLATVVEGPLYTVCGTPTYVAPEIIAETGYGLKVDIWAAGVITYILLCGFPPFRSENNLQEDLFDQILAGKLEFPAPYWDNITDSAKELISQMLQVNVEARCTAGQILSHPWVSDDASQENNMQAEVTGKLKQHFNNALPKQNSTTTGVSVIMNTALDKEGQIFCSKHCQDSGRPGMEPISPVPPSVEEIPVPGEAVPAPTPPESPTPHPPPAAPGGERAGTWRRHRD
Sequence of Mitogen-activated protein kinase 6 (Homo sapiens) (Q16659 whole entry): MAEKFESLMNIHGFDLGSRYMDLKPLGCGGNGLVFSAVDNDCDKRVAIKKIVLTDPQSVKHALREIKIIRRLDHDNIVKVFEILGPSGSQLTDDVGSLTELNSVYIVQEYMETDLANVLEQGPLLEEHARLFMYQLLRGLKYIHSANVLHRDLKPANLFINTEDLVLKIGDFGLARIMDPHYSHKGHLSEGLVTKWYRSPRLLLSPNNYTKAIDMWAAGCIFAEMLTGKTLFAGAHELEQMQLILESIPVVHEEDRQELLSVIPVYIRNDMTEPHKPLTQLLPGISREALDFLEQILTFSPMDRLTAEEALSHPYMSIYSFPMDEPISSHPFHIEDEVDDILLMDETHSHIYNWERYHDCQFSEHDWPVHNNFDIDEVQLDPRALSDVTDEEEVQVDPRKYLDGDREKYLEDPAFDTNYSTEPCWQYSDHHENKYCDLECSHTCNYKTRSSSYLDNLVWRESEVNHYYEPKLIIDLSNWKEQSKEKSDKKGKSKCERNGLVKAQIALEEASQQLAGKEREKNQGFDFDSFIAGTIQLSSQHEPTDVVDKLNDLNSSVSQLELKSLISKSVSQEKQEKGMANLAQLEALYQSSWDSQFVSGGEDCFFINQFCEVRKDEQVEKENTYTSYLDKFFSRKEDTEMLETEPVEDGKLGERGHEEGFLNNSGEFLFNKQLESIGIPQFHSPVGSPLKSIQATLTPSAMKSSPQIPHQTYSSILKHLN
Sequence of Tyrosine-protein kinase Yes (Homo sapiens) (P07947 2-543 limits assumed): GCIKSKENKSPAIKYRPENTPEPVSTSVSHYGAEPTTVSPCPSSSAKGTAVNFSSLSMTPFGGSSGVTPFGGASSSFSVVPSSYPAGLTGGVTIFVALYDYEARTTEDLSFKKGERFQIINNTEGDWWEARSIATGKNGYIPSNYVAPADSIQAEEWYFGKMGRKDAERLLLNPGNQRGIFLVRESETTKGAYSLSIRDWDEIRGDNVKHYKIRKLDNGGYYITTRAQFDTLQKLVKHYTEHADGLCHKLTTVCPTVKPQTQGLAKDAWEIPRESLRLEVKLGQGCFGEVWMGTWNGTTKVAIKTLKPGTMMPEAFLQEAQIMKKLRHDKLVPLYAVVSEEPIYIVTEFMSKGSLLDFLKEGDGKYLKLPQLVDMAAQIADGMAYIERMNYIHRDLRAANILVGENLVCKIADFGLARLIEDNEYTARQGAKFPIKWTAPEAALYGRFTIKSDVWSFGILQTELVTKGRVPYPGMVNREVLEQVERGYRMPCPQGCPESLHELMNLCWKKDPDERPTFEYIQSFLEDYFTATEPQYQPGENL
Sequence of Serine/threonine-protein kinase ULK1 (Homo sapiens) (O75385 whole entry): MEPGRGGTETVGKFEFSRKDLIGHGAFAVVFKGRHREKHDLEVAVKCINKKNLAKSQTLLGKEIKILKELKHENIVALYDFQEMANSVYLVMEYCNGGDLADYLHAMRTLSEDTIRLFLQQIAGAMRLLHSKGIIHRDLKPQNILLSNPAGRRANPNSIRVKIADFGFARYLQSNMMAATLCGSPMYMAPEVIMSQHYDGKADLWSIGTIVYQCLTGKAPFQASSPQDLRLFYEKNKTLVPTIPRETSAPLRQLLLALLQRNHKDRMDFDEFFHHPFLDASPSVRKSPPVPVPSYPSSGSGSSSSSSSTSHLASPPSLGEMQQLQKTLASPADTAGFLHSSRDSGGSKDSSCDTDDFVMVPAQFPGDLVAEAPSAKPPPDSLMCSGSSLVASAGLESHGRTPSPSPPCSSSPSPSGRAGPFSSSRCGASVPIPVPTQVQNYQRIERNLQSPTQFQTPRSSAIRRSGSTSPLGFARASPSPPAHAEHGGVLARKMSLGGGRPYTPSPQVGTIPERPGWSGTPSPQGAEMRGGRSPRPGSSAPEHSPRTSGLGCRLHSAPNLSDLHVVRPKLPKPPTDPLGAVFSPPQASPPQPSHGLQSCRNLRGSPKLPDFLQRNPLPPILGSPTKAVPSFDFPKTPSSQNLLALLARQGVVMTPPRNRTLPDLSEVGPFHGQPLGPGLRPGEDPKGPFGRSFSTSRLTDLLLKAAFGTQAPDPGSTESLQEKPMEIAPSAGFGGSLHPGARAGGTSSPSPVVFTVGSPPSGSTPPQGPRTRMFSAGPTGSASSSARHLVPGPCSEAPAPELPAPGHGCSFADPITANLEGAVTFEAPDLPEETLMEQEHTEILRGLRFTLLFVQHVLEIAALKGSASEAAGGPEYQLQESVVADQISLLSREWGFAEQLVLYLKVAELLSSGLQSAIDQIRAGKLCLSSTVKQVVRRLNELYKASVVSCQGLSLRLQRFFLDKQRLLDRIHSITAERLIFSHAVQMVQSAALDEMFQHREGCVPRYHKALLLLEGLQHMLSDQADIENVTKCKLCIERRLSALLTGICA
Sequence of Tyrosine-protein kinase Blk (Homo sapiens) (P51451 2-505 limits assumed): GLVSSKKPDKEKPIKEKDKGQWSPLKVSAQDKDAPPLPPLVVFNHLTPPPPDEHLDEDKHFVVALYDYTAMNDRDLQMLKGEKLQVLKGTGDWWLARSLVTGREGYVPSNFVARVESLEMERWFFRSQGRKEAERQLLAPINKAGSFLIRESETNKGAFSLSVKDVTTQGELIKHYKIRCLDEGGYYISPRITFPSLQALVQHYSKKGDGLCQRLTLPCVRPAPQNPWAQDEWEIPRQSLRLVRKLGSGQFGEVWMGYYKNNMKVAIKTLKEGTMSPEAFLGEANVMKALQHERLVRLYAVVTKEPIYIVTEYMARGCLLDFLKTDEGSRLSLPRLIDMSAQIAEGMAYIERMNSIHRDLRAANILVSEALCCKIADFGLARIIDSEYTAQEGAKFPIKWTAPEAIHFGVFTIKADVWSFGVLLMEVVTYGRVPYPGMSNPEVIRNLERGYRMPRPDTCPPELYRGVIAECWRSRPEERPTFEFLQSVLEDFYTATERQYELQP
Sequence of Calcium/calmodulin-dependent protein kinase type 1D (Homo sapiens) (Q8IU85 whole entry, looked up): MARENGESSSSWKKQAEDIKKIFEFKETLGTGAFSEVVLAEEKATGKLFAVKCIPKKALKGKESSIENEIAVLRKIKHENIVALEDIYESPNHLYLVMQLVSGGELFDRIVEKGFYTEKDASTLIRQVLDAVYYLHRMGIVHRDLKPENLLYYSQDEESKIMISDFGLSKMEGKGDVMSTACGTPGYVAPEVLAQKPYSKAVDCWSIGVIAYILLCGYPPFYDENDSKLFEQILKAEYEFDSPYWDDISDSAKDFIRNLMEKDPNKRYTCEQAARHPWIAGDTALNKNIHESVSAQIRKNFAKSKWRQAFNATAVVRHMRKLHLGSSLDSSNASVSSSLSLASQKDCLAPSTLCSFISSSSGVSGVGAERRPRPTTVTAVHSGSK
Sequence of Mitogen-activated protein kinase kinase kinase 7 (Homo sapiens) (O43318 whole entry, looked up): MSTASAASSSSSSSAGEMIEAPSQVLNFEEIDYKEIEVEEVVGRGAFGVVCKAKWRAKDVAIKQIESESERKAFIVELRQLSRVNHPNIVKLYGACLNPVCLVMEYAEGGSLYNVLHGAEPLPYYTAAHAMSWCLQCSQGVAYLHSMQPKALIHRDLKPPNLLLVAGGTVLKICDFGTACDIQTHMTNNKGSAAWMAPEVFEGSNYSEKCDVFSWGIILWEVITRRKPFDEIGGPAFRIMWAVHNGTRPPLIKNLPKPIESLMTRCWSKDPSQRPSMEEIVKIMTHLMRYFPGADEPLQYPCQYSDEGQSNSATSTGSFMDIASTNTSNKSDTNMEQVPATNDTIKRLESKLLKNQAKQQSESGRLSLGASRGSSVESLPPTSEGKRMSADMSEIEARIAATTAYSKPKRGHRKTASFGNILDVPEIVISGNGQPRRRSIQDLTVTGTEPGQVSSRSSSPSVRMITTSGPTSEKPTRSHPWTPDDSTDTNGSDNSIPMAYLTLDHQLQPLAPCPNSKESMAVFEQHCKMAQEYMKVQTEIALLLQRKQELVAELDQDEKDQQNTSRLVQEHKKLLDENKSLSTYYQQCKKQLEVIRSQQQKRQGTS
Sequence of Mitogen-activated protein kinase 3 (Homo sapiens) (P27361 whole entry): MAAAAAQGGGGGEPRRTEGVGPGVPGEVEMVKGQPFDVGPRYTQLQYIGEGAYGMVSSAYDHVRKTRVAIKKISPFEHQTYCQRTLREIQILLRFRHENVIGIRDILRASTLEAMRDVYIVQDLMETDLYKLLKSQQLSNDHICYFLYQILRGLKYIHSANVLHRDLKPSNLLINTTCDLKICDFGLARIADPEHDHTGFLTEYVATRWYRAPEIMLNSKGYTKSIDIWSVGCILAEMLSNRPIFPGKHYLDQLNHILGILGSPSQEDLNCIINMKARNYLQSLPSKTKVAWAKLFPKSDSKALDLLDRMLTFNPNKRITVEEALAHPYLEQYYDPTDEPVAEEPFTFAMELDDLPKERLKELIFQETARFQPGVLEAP

In the case of `CN1C(=O)/C(=C2/C(=O)Nc3ccccc32)c2ccccc21`, the Activity [1] was 93%, the Activity [2] was 99% and the Activity [3] was 100%. For the same molecule, the Activity [4] was 68%, the Activity [5] was 93% and the Activity [6] was 78%. It also gave an Activity [7] of 100%, an Activity [8] of 100% and an Activity [9] of 66%. For the same molecule, the Activity [10] was 81%, the Activity [11] was 100% and the Activity [12] was 100%. The Activity [13] was 100%, the Activity [14] was 100% and the Activity [15] was 88%. The Activity [16] was 90%, the Activity [17] was 100% and the Activity [18] was 83%. For the same molecule, the Activity [19] was 100%, the Activity [20] was 40% and the Activity [21] was 91%. For the same molecule, the Activity [22] was 100%, the Activity [23] was 100% and the Activity [24] was 86%. The Activity [25] was 88%, the Activity [26] was 98% and the Activity [27] was 88%. The Activity [28] was 100% and the Activity [29] was 100%.
